# According to US20220119354A1, “DIAMINO-SUBSTITUTED PYRIDINES AND PYRIMIDINES AS HERBICIDES” (FMC Corporation, priority 2019, published 2022):
# Legend:
# Assay type in all cases: in vivo
# [1] = tested on: ryegrass, Italian (Lolium multiflorum); experiment: Test A postemergence, Italian ryegrass; conditions: 0 to 100 scale; for Plant response rating, Ryegrass, Italian: 0 no effect, 100 complete control
# Outline: (§1)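 Compound, in a non-phytotoxic solvent blend containing surfactant, is sprayed onto soil immediately after sowing or onto young plants (one- to two-leaf, 2–10 cm). After roughly 10 d under greenhouse conditions, injury is judged by eye relative to untreated plants on a 0–100 control scale.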
# [2] = tested on: pigweed (Amaranthus retroflexus); experiment: Test A postemergence, pigweed; conditions: 0 to 100 scale; for Plant response rating, Pigweed: 0 no effect, 100 complete control
# Outline: as §1
# [3] = tested on: ducksalad (Heteranthera limosa); experiment: Test B flooded paddy test, ducksalad; conditions: Flood, 250 g ai/ha, applied to paddy water, 2-leaf stage, visual evaluation after 13 to 15 d
# Outline: (§2)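 Pots flooded to 3 cm above the soil when treated, with test compound added straight to the water and the flood maintained. Treated plants were at the 2-leaf stage and stayed 13–15 d in greenhouse. Response versus untreated controls scored visually from 0 (no effect) to 100 (complete control).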
# kochia (Kochia scoparia) [4] = experiment: Test A preemergence, kochia; conditions: 0 to 100 scale, 0 is no effect, 100 is complete control
# Outline: as §1
# [5] = tested on: ragweed (common ragweed, Ambrosia elatior); experiment: Test A postemergence, ragweed; conditions: 0 to 100 scale; for Plant response rating, Ragweed: 0 no effect, 100 complete control
# Outline: as §1
# [6] = tested on: ryegrass, Italian (Lolium multiflorum); experiment: Test A preemergence, Italian ryegrass; conditions: 0 to 100 scale, 0 is no effect, 100 is complete control
# Outline: as §1
# corn (Zea mays) = experiment: Test A postemergence, corn; conditions: 0 to 100 scale; for Plant response rating, Corn: 0 no effect, 100 complete control
# Outline: as §1
# [7] = tested on: barnyardgrass (Echinochloa crus-galli); experiment: Test A preemergence, barnyardgrass; conditions: 0 to 100 scale, 0 is no effect, 100 is complete control
# Outline: as §1
# [8] = tested on: foxtail, giant (Setaria faberii); experiment: Test A postemergence, giant foxtail; conditions: 0 to 100 scale; for Plant response rating, Foxtail, Giant: 0 no effect, 100 complete control
# Outline: as §1
# rice (Oryza sativa) = experiment: Test B flooded paddy test, rice; conditions: Flood, 250 g ai/ha, applied to paddy water, 2-leaf stage, visual evaluation after 13 to 15 d
# Outline: as §2
# [9] = tested on: ragweed (common ragweed, Ambrosia elatior); experiment: Test A preemergence, ragweed; conditions: 0 to 100 scale, 0 is no effect, 100 is complete control
# Outline: as §1
# [10] = tested on: barnyardgrass (Echinochloa crus-galli); experiment: Test B flooded paddy test, barnyardgrass; conditions: Flood, 250 g ai/ha, applied to paddy water, 2-leaf stage, visual evaluation after 13 to 15 d
# Outline: as §2
# [11] = tested on: barnyardgrass (Echinochloa crus-galli); experiment: Test A postemergence, barnyardgrass; conditions: 0 to 100 scale; for Plant response rating, Barnyardgrass: 0 no effect, 100 complete control
# Outline: as §1
# [12] = tested on: blackgrass (Alopecurus myosuroides); experiment: Test A postemergence, blackgrass; conditions: 0 to 100 scale; for Plant response rating, Blackgrass: 0 no effect, 100 complete control
# Outline: as §1
# [13] = tested on: wheat (Triticum aestivum); experiment: Test A postemergence, wheat; conditions: 0 to 100 scale; for Plant response rating, Wheat: 0 no effect, 100 complete control
# Outline: as §1
# [14] = tested on: pigweed (Amaranthus retroflexus); experiment: Test A preemergence, pigweed; conditions: 0 to 100 scale, 0 is no effect, 100 is complete control
# Outline: as §1
# [15] = tested on: sedge, umbrella (small-flower umbrella sedge, Cyperus difformis); experiment: Test B flooded paddy test, umbrella sedge; conditions: Flood, 250 g ai/ha, applied to paddy water, 2-leaf stage, visual evaluation after 13 to 15 d
# Outline: as §2
# [16] = tested on: galium (catchweed bedstraw, Galium aparine); experiment: Test A postemergence, galium; conditions: 0 to 100 scale; for Plant response rating, Galium: 0 no effect, 100 complete control
# Outline: as §1
# [17] = tested on: foxtail, giant (Setaria faberii); experiment: Test A preemergence, giant foxtail; conditions: 0 to 100 scale, 0 is no effect, 100 is complete control
# Outline: as §1
# kochia (Kochia scoparia) [18] = experiment: Test A postemergence, kochia; conditions: 0 to 100 scale; for Plant response rating, Kochia: 0 no effect, 100 complete control
# Outline: as §1
# [19] = 500 g ai/ha, 0 is no effect, 100 is complete control
SMILES,"Plant response rating, Ryegrass, Italian ([1]; 125 g ai/ha)","Plant response rating, Pigweed ([2]; 125 g ai/ha)","Plant response rating, Ducksalad (0 to 100 scale, 0 is no effect, 100 is complete control) [3]",Kochia plant response rating (kochia (Kochia scoparia) [4]; 125 g ai/ha),"Plant response rating, Ragweed ([5]; 125 g ai/ha)","Ryegrass, Italian plant response rating ([6]; 125 g ai/ha)","Plant response rating, Corn (corn (Zea mays); 125 g ai/ha)",Barnyardgrass plant response rating ([7]; 125 g ai/ha),"Plant response rating, Foxtail, Giant ([8]; 125 g ai/ha)","Plant response rating, Rice (0 to 100 scale, 0 is no effect, 100 is complete control) (rice (Oryza sativa))",Ragweed plant response rating ([9]; 125 g ai/ha),"Plant response rating, Barnyardgrass (0 to 100 scale, 0 is no effect, 100 is complete control) [10]","Plant response rating, Barnyardgrass ([11]; 125 g ai/ha)","Plant response rating, Blackgrass ([12]; 125 g ai/ha)","Plant response rating, Wheat ([13]; 125 g ai/ha)",Pigweed plant response rating ([14]; 125 g ai/ha),"Plant response rating, Sedge, Umbrella (0 to 100 scale, 0 is no effect, 100 is complete control) [15]","Plant response rating, Galium ([16]; 125 g ai/ha)","Foxtail, Giant plant response rating ([17]; 125 g ai/ha)","Plant response rating, Kochia (kochia (Kochia scoparia) [18]; 125 g ai/ha)",also measured
CC(F)c1nc(N[C@H](C)c2cc3ccccc3s2)nc(N)c1C(F)(F)F (stereo partly drawn) [Compound 108],50,90,30,90,50,30,10,30,20,0,70,35,0,0,0,90,75,70,30,70,"Plant response rating, Ryegrass, Italian ([1]; 31 g ai/ha): 0; Plant response rating, Pigweed ([2]; 31 g ai/ha): 70; Kochia plant response rating (kochia (Kochia scoparia) [4]; 31 g ai/ha): 90; Plant response rating, Ragweed ([5]; 31 g ai/ha): 30; Ryegrass, Italian plant response rating ([6]; 31 g ai/ha): 0; Plant response rating, Corn (corn (Zea mays); 31 g ai/ha): 0; Barnyardgrass plant response rating ([7]; 31 g ai/ha): 40; Plant response rating, Foxtail, Giant ([8]; 31 g ai/ha): 0; Ragweed plant response rating ([9]; 31 g ai/ha): 50; Plant response rating, Barnyardgrass ([11]; 31 g ai/ha): 20; Plant response rating, Blackgrass ([12]; 31 g ai/ha): 0; Plant response rating, Wheat ([13]; 31 g ai/ha): 0; Pigweed plant response rating ([14]; 31 g ai/ha): 70; Plant response rating, Galium ([16]; 31 g ai/ha): 50; Foxtail, Giant plant response rating ([17]; 31 g ai/ha): 30; Plant response rating, Kochia (kochia (Kochia scoparia) [18]; 31 g ai/ha): 40"
CC[C@H](Nc1ncc(C(F)(F)F)c(N)n1)c1cc2ccccc2s1 [Compound 44],0,0,0,0,0,0,0,0,0,0,20,0,0,0,0,20,0,0,0,0,"Ryegrass, Italian plant response rating [1, 19]: 0; Pigweed plant response rating [2, 19]: 60; Kochia plant response rating (kochia (Kochia scoparia) [4]; 500 g ai/ha): 0; Ragweed plant response rating [5, 19]: 0; Ryegrass, Italian plant response rating ([6]; 500 g ai/ha): 0; Corn plant response rating (corn (Zea mays); [19]): 0; Barnyardgrass plant response rating ([7]; 500 g ai/ha): 40; Foxtail, Giant plant response rating [8, 19]: 10; Ragweed plant response rating ([9]; 500 g ai/ha): 50; Barnyardgrass plant response rating [11, 19]: 0; Blackgrass plant response rating [12, 19]: 20; Wheat plant response rating [13, 19]: 0; Pigweed plant response rating ([14]; 500 g ai/ha): 20; Galium plant response rating [16, 19]: 0; Foxtail, Giant plant response rating ([17]; 500 g ai/ha): 20; Kochia plant response rating (kochia (Kochia scoparia) [18]; [19]): 50"
